How the values were obtained:
Type in all cases: in vivo
[1] = tested on: pigweed (Amaranthus retroflexus); test: Test B postemergence
In short: (§1)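 Preemergence: seeds planted and treated with test chemicals in non-phytotoxic solvent with surfactant; postemergence on plants 2–18 cm (1- to 4-leaf stage). Kept in greenhouse 13–15 days, then visually rated against controls on a 0 (no effect) to 100 (complete control) scale.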

[2] = tested on: morning glory (Ipomoea hederacea); test: Test B postemergence
In short: as §1

corn (Zea mays) [3] = test: Test B postemergence
In short: as §1

[4] = tested on: blackgrass (Alopecurus myosuroides); test: Test B postemergence
In short: as §1

[5] = tested on: giant foxtail (Setaria faberii); test: Test B postemergence
In short: as §1

[6] = tested on: wheat (Triticum aestivum); test: Test B postemergence
In short: as §1

[7] = tested on: lambsquarters (Chenopodium album); test: Test B postemergence
In short: as §1

[8] = tested on: Surinam grass (Brachiaria decumbens); test: Test B postemergence
In short: as §1

[9] = tested on: crabgrass (Digitaria sanguinalis); test: Test B postemergence
In short: as §1

[10] = tested on: cocklebur (Xanthium strumarium); test: Test B postemergence
In short: as §1

wild oat (Avena fatua) = test: Test B postemergence
In short: as §1

[11] = tested on: velvetleaf (Abutilon theophrasti); test: Test B postemergence
In short: as §1

[12] = tested on: barnyardgrass (Echinochloa crus-galli); test: Test B postemergence
In short: as §1

[13] = tested on: pigweed (Amaranthus retroflexus); test: Test B preemergence
In short: as §1

[14] = tested on: morning glory (Ipomoea hederacea); test: Test B preemergence
In short: as §1

corn (Zea mays) [15] = test: Test B preemergence
In short: as §1

[16] = tested on: giant foxtail (Setaria faberii); test: Test B preemergence
In short: as §1

[17] = tested on: lambsquarters (Chenopodium album); test: Test B preemergence
In short: as §1

[18] = tested on: Surinam grass (Brachiaria decumbens); test: Test B preemergence
In short: as §1

[19] = tested on: crabgrass (Digitaria sanguinalis); test: Test B preemergence
In short: as §1

[20] = tested on: cocklebur (Xanthium strumarium); test: Test B preemergence; conditions: scale 0 to 100, 0 no effect, 100 complete control
In short: as §1

[21] = tested on: velvetleaf (Abutilon theophrasti); test: Test B preemergence
In short: as §1

[22] = tested on: barnyardgrass (Echinochloa crus-galli); test: Test B preemergence
In short: as §1

rice (Oryza saliva) [23] = test: Test B preemergence
In short: as §1

[24] = tested on: smallflower flatsedge (Cyperus difformis); test: Test B flooded paddy test; conditions: Rate 1000 g/ha, scale of 0 to 100 where 0 is no effect and 100 is complete control, visually evaluated after 13 to 15 days
In short: (§2)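 Rice, smallflower flatsedge, duck salad and barnyardgrass grown to 2-leaf stage in flooded paddy and treated with test chemicals. Plants kept in greenhouse 13 to 15 days, then visually rated against controls. Scale 0 (no effect) to 100 (complete control).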

[25] = tested on: duck salad (Heteranthera limosa); test: Test B flooded paddy test; conditions: Rate 1000 g/ha, scale of 0 to 100 where 0 is no effect and 100 is complete control, visually evaluated after 13 to 15 days
In short: as §2

[26] = tested on: barnyardgrass (Echinochloa crus-galli); test: Test B flooded paddy test; conditions: Rate 1000 g/ha, scale of 0 to 100 where 0 is no effect and 100 is complete control, visually evaluated after 13 to 15 days
In short: as §2

rice (Oryza saliva) [27] = test: Test B flooded paddy test; conditions: Rate 1000 g/ha, scale of 0 to 100 where 0 is no effect and 100 is complete control, visually evaluated after 13 to 15 days
In short: as §2

[28] = Rate 125 g/ha, scale 0 (no effect) to 100 (complete control), 13 to 15 days
[29] = Rate 500 g/ha, scale 0 to 100, 0 is no effect, 100 is complete control, 13 to 15 days
[30] = Preemergence, Rate 500 g/ha, scale 0 to 100, 0 no effect, 100 complete control
[31] = preemergence, Rate 125 g/ha, scale 0 to 100, 0 no effect, 100 complete control
[32] = Rate 125 g/ha, scale 0 to 100, 0 no effect, 100 complete control
[33] = Rate 500 g/ha, scale 0 (no effect) to 100 (complete control), 13 to 15 days
[34] = preemergence, Rate 125 g/ha, scale of 0 to 100 where 0 is no effect and 100 is complete control, 13 to 15 days

**Q.** What does the source list for `Cc1ccc(N2CCC(n3ccc(C(C)(C)C)n3)C2=O)cc1Br` (stereo not drawn) [Compound 35]?
**A.** Plant response rating, Pigweed [1, 28]: 90; Plant response rating, Pigweed [1, 29]: 90; Plant response rating, Morningglory [2, 28]: 0; Plant response rating, Morningglory [2, 29]: 20; Plant response rating, Corn (corn (Zea mays) [3]; [28]): 0; Plant response rating, Corn (corn (Zea mays) [3]; [29]): 0; Plant response rating, Blackgrass [4, 28]: 0; Plant response rating, Blackgrass [4, 29]: 0; Plant response rating, Foxtail, Giant [5, 28]: 0; Plant response rating, Foxtail, Giant [5, 29]: 0; Plant response rating, Wheat [6, 28]: 0; Plant response rating, Wheat [6, 29]: 0; Plant response rating, Lambsquarters [7, 28]: 0; Plant response rating, Lambsquarters [7, 29]: 80; Plant response rating, Surinam grass [8, 28]: 0; Plant response rating, Surinam grass [8, 29]: 0; Plant response rating, Crabgrass [9, 28]: 0; Plant response rating, Crabgrass [9, 29]: 0; Plant response rating, Cocklebur [10, 28]: 40; Plant response rating, Cocklebur [10, 29]: 40; Plant response rating, Wild Oat (wild oat (Avena fatua); [28]): 0; Plant response rating, Wild Oat (wild oat (Avena fatua); [29]): 0; Plant response rating, Velvetleaf [11, 28]: 0; Plant response rating, Velvetleaf [11, 29]: 0; Plant response rating, Barnyardgrass [12, 28]: 0; Plant response rating, Barnyardgrass [12, 29]: 40; Plant response rating, Pigweed [13, 30]: 100; Plant response rating, Morningglory [14, 30]: 0; Plant response rating, Corn (corn (Zea mays) [15]; [30]): 0; Plant response rating, Corn (corn (Zea mays) [15]; [31]): 0; Plant response rating, Foxtail, Giant [16, 30]: 0; Plant response rating, Foxtail, Giant [16, 31]: 0; Plant response rating, Lambsquarters [17, 30]: 100; Plant response rating, Lambsquarters [17, 31]: 0; Plant response rating, Surinam grass [18, 30]: 0; Plant response rating, Surinam grass [18, 31]: 0; Plant response rating, Crabgrass [19, 30]: 100; Plant response rating, Crabgrass [19, 31]: 0; Plant response rating, Cocklebur ([20]; Preemergence, Rate 500 g/ha): 0; Plant response rating, Cocklebur ([20]; preemergence, Rate 125 g/ha): 0; Plant response rating, Velvetleaf [21, 30]: 0; Plant response rating, Barnyardgrass [22, 30]: 60; Plant response rating, Barnyardgrass [22, 31]: 0; Plant response rating, Rice (rice (Oryza saliva) [23]; [30]): 0; Plant response rating, Flatsedge [24]: 100; Plant response rating, Ducksalad [25]: 0; Plant response rating, Barnyardgrass [26]: 60; Plant response rating, Rice (rice (Oryza saliva) [27]): 0

**Q.** For `Cc1ccnc(N2CCC(n3ccc(C(C)(C)C)n3)C2=O)c1` (stereo not drawn) [Compound 139], which “Plant response rating, Pigweed” value [1, 32] is on record?
**A.** 0

**Q.** And the “Plant response rating, Pigweed” value [1, 33]?
**A.** 0

**Q.** And the “Plant response rating, Morningglory” value [2, 32]?
**A.** 0

**Q.** And the “Plant response rating, Morningglory” value [2, 33]?
**A.** 0

**Q.** And the “Plant response rating, Corn” value (corn (Zea mays) [3]; [32])?
**A.** 0

**Q.** And the “Plant response rating, Corn” value (corn (Zea mays) [3]; [33])?
**A.** 0

**Q.** What about the “Plant response rating, Blackgrass” value [4, 32] of the same compound?
**A.** 0

**Q.** What about the “Plant response rating, Blackgrass” value [4, 33] of the same compound?
**A.** 0

**Q.** And the “Plant response rating, Foxtail, Giant” value [5, 32]?
**A.** 0

**Q.** What about the “Plant response rating, Foxtail, Giant” value [5, 33] of the same compound?
**A.** 0

**Q.** What about the “Plant response rating, Wheat” value [6, 32] of the same compound?
**A.** 0

**Q.** And the “Plant response rating, Wheat” value [6, 33]?
**A.** 0

**Q.** What about the “Plant response rating, Lambsquarters” value [7, 32] of the same compound?
**A.** 0

**Q.** What about the “Plant response rating, Lambsquarters” value [7, 33] of the same compound?
**A.** 0

**Q.** What about the “Plant response rating, Surinam grass” value [8, 32] of the same compound?
**A.** 0

**Q.** What about the “Plant response rating, Surinam grass” value [8, 33] of the same compound?
**A.** 0

**Q.** And the “Plant response rating, Crabgrass” value [9, 32]?
**A.** 0

**Q.** What about the “Plant response rating, Crabgrass” value [9, 33] of the same compound?
**A.** 0

**Q.** And the “Plant response rating, Cocklebur” value [10, 32]?
**A.** 0

**Q.** What about the “Plant response rating, Cocklebur” value [10, 33] of the same compound?
**A.** 0

**Q.** And the “Plant response rating, Wild Oat” value (wild oat (Avena fatua); [32])?
**A.** 0

**Q.** And the “Plant response rating, Wild Oat” value (wild oat (Avena fatua); [33])?
**A.** 0

**Q.** And the “Plant response rating, Velvetleaf” value [11, 32]?
**A.** 0

**Q.** And the “Plant response rating, Velvetleaf” value [11, 33]?
**A.** 0

**Q.** And the “Plant response rating, Barnyardgrass” value [12, 32]?
**A.** 0

**Q.** What about the “Plant response rating, Barnyardgrass” value [12, 33] of the same compound?
**A.** 0

**Q.** And the “Plant response rating, Pigweed” value [13, 30]?
**A.** 100

**Q.** What about the “Plant response rating, Pigweed” value [13, 34] of the same compound?
**A.** 0

**Q.** What about the “Plant response rating, Morningglory” value [14, 30] of the same compound?
**A.** 0

**Q.** What about the “Plant response rating, Morningglory” value [14, 34] of the same compound?
**A.** 0

**Q.** What about the “Plant response rating, Corn” value (corn (Zea mays) [15]; [30]) of the same compound?
**A.** 0

**Q.** What about the “Plant response rating, Corn” value (corn (Zea mays) [15]; [34]) of the same compound?
**A.** 0

**Q.** And the “Plant response rating, Foxtail, Giant” value [16, 30]?
**A.** 0

**Q.** What about the “Plant response rating, Foxtail, Giant” value [16, 34] of the same compound?
**A.** 0

**Q.** What about the “Plant response rating, Lambsquarters” value [17, 30] of the same compound?
**A.** 100

**Q.** And the “Plant response rating, Lambsquarters” value [17, 34]?
**A.** 100

**Q.** And the “Plant response rating, Surinam grass” value [18, 30]?
**A.** 0

**Q.** What about the “Plant response rating, Surinam grass” value [18, 34] of the same compound?
**A.** 0

**Q.** And the “Plant response rating, Crabgrass” value [19, 30]?
**A.** 0

**Q.** What about the “Plant response rating, Crabgrass” value [19, 34] of the same compound?
**A.** 0

**Q.** What about the “Plant response rating, Cocklebur” value ([20]; Preemergence, Rate 500 g/ha) of the same compound?
**A.** 0

**Q.** What about the “Plant response rating, Velvetleaf” value [21, 30] of the same compound?
**A.** 0

**Q.** And the “Plant response rating, Velvetleaf” value [21, 34]?
**A.** 0

**Q.** What about the “Plant response rating, Barnyardgrass” value [22, 30] of the same compound?
**A.** 0

**Q.** What about the “Plant response rating, Barnyardgrass” value [22, 34] of the same compound?
**A.** 0

**Q.** What about the “Plant response rating, Rice” value (rice (Oryza saliva) [23]; [30]) of the same compound?
**A.** 0

**Q.** What about the “Plant response rating, Rice” value (rice (Oryza saliva) [23]; [34]) of the same compound?
**A.** 0

**Q.** And the “Plant response rating, Flatsedge” value [24]?
**A.** 70

**Q.** And the “Plant response rating, Ducksalad” value [25]?
**A.** 0

**Q.** And the “Plant response rating, Barnyardgrass” value [26]?
**A.** 20

**Q.** And the “Plant response rating, Rice” value (rice (Oryza saliva) [27])?
**A.** 0

— patent US7138361B2, “Herbicidal heterocycles” (E. I. du Pont de Nemours and Company, priority 2000, dated 2006)
